Source: PMC11510591, “In Vitro Evaluation of Pharmacokinetic Properties of Selected Dual COX-2 and 5-LOX Inhibitors” (Pharmaceuticals, 2024)
In brackets after ≈: the same amount, converted by molar mass. Several values for one entry are separate records, joined by “and”; a condition that tells them apart may be missing. Identical values can stand only once. Marks after values point to notes of the source that are not given here.

Legend:
[1] = PAMPA test (hexadecane membrane), passive gastrointestinal absorption; type: in vitro ADME; details: for Papp at 5 h, 0.05 mM / –logPe: donor pH 5.5, acceptor pH 7.4, 5 h, room temperature; for Papp at 5 h, 0.05 mM: read-out: Pe (effective passive permeability coefficient)
Description: The PAMPA test uses a 96-well plate coated with an impregnated filter material, forming an artificial membrane that separates donor and acceptor compartments. Egg lecithin in dodecane is commonly used to simulate membrane lipids, while hexadecane is effective for mimicking gastrointestinal membranes. […] Therefore, hexadecane dissolved in hexane was chosen in this study.
The phosphate buffer solution was prepared by dissolving 0.5292 g of NaH2PO4 × H2O and 0.0234 g of Na2HPO4 in purified water (200 mL). The phosphate buffer was divided into two portions, and the pH was adjusted to pH 5.5 and pH 7.4 using o-phosphoric acid. The donor solutions were prepared by diluting the stock solutions (5 mM DMSO solutions) with the buffer pH 5.5 to obtain the final concentration of 0.05 mM (the DMSO concentration in the donor solutions was 1%), while the acceptor solution was prepared as a 1% DMSO solution in the buffer pH 7.4. The use of DMSO as a cosolvent in PAMPA is necessary in cases of low-soluble compounds. It is usually used in concentrations up to 5% [25, 55, 56, 57].
The PAMPA test was performed according to the literature procedure using a 96-well microtiter polycarbonate filter plate (Merck Millipore, Carrigtwohill, Ireland) that was impregnated with 15 µL of a hexadecane/hexane (5:95, v/v) solution [52]. Donor solutions (300 µL per well) were transferred into each well of the donor plate. Acceptor solution was transferred into each well (300 µL per well) of the acceptor plate (MSSACCEPTOR, Millipore, Burlington, MA, USA) and covered by the donor plate to create a PAMPA sandwich. The system was incubated at room temperature for 5 h at a vibratory mixer. After incubation, the PAMPA sandwich was dissociated, and concentrations of all tested compounds in each well, as well as in the starting solutions, were determined using the HPLC method (Section 3.3.1).
The concentrations of tested compounds in the starting solutions, as well as in the donor and acceptor sections after incubation, were determined by the HPLC method on the Dionex Ultimate 3000 (Thermo Fisher Scientific, Waltham, MA, USA) equipped with a quaternary pump, autosampler, and DAD detector using a ZORBAX Eclipse XDB-C18 4.6 × 150 mm, 5 µm column (Agilent Technologies, Santa Clara, CA, USA).
R represents the retention, which is defined as the fraction of the tested compound retained in the PAMPA membrane (filters and plate materials), CD(t) is the concentration of a tested compound in a donor compartment after incubation time t, CA(t) is the concentration of a tested compound in an acceptor compartment after incubation time t, while CD(0) represents the concentration of a tested compound in a donor compartment at the beginning of the incubation (starting solution).

[2] = molecular target: T1, human serum albumin (HSA) (Homo sapiens, UniProt P02768); assay: Differential pulse voltammetry (DPV), interaction with HSA; type: binding; details: compound 0.05 mmol/L, PBS pH 7.4, HSA 0.05–10 μmol/L; for fraction unbound at 0.05 mmol/L: human, human serum albumin solution in PBS, read-out: % Bound Drug (converted)
T1 construct: purchased Sigma-Aldrich
Description: The electrochemical oxidation of the tested compounds at a concentration of 0.05 mmol/L in PBS buffer pH 7.4 was investigated by differential pulse voltammetry (DPV). […] For all tested compounds, a preliminary study of the interaction with HSA was performed at a concentration of 0.05 mmol/L and different HSA concentrations (0.05–10 μmol/L) using DPV. […] It has been reported that the shift in the potential of an electroactive ligand is a suitable criterion to determine the mode of the macromolecule–ligand interaction. In this context, a positive shift in potential is an indication of hydrophobic interaction of investigated compounds with HSA [34]. The decrease in peak current could be due to the formation of a non-electroactive supramolecular compound by the drug–protein interaction, which reduces the concentration of free drug.
The voltammetric measurements were carried out with the µAutolab analyzer (EcoChemie, Utrecht, The Netherlands). A three-electrode system with a GCE working electrode, an Ag/AgCl reference electrode, and a Pt-auxiliary electrode was used. Before each experiment, the GCE was manually polished with an aqueous slurry of Al2O3 powder (particle size of 0.05 μm) on a smooth polishing pad, sonicated in deionized water, and then treated in absolute ethanol. Phosphate buffer saline (PBS) pH 7.4 was used as the supporting electrolyte. The experiments were carried out with deaerated PBS buffer. A stock solution of HSA in PBS at a concentration of 0.1 mmol/L was used. […] The interaction between tested compounds and HSA was examined in PBS solution, using solutions of tested compounds in a concentration of 0.05 mmol/L and HSA solution with a concentration in the range of 0.05–10 μmol/L.
The percentage of free compound (Equation (4)) was calculated from the ratio of the current intensity (IINT) for a given compound concentration (0.05 mmol/L) in the presence of albumin to the signal obtained at the same compound concentration only in the presence of the supporting electrolyte (PBS buffer) (IC).

[3] = Stability in acidic medium (0.01 M HCl); type: physicochemical; details: for The Decrease in Peak Area (%): 0.01 M HCl pH 2, 2 h; for Peak Area, t: 0.01 M HCl pH 2, after 2 h; for Peak Area, t0: 0.01 M HCl pH 2, start of incubation
Description: In order to test gastric stability, compounds were incubated in 0.01 M HCl (pH = 2) for 2 h. Moreover, 0.01 M HCl was chosen because this acid is naturally present in the stomach and simulates its pH (between 1 and 3), while incubation time (2 h) corresponds to the average retention of drugs in the stomach after an oral administration. Peak areas at the beginning (t0) and at the end of the incubation (t) and the decrease in peak areas between these two time points are presented in Table 5.
Acidic medium was simulated by a 0.01 M HCl solution, which was prepared by diluting 0.1 M HCl with distilled water. Stock solutions of tested compounds (5 mM DMSO solutions) were diluted with the medium to obtain a concentration of 0.05 mM. Tested compounds were investigated immediately after preparation (t0) and after a defined incubation time (t) by injecting these solutions into the HPLC chromatograph in duplicates (the HPLC method used was the same as described in Section 3.3.1). The difference between peak areas at t0 and t time points and the eventual occurrence of additional chromatographic peaks after incubation were analyzed.

[4] = Solubility in water; type: physicochemical; details: distilled water, thermodynamic from solid, room temperature
Description: As discussed in the previous section, all tested compounds are dominantly unionized in the whole range of physiologically important pH values (2 < pH ≤ 7.4). Therefore, water was used for the determination of solubility. […] According to USP34, all tested compounds can be defined as practically insoluble since their solubilities are ≤100 mg/L [54].
Solubility of tested compounds was investigated at room temperature. Compounds were weighed on a scale (5 mg each) and transferred to flasks. In a stepwise procedure, increasing volumes of distilled water were added, and after each addition of an amount of water, the mixture was placed on an ultrasound bath for 5 min and visually inspected for undissolved parts of the sample. When no […] could be observed, the mixture was transferred into a glass cylinder, and opalescence was compared with water. If the mixture was not more opalescent than the solvent, the solvation was considered to be achieved. Solubility of a compound is defined according to the amount of solvent required to dissolve 1 mg.

T1 sequence (P02768 25-609): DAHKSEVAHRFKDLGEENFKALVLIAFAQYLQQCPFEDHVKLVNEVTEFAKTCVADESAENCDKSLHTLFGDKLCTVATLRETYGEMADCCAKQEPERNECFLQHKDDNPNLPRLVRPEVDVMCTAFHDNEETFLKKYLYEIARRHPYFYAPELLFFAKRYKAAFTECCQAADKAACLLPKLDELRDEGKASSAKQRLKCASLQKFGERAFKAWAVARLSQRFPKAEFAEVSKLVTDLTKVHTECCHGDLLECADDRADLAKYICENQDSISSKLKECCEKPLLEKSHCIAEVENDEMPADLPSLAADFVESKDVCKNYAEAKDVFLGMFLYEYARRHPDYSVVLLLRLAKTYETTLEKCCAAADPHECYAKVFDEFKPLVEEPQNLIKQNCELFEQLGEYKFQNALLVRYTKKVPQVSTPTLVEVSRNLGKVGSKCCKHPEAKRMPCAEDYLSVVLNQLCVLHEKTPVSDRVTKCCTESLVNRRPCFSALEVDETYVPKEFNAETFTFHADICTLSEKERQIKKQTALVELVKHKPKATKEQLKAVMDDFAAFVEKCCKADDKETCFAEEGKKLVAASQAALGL

| Compound | Papp at 5 h, 0.05 mM ([1]; PAMPA) | ΔE, DPV peak potential shift after interaction with HSA [2] | fraction unbound at 0.05 mmol/L [2] | The Decrease in Peak Area (%) [3] | Peak Area, t [3] | Peak Area, t0 [3] | solubility at 5 min [4] | –logPe [1] | Membrane retention (R) ([1]; PAMPA) |
| --- | --- | --- | --- | --- | --- | --- | --- | --- | --- |
| COc1ccc2c(c1)c(CNC(=O)NO)c(C)n2C(=O)c1ccc(Cl)cc1 [Compound 1] | 42.9 ×10⁻⁶ cm/s | 34 mV | 0.267 | 0.07 (p = 0.2839) ^a % | 8.27 ± 0.00 | 8.28 ± 0.01 | 1.5 µg/mL (≈ 3.87 µM) | – | – |
| CC(NC(=O)NO)c1ccc(-c2ccccc2)c(F)c1 (stereo not drawn) [Compound 2] | 17.6 ×10⁻⁶ cm/s | 30 mV | 0.198 | 0.34 (p = 0.4501) % | 6.55 ± 0.07 | 6.57 ± 0.12 | 14.3 µg/mL (≈ 52.1 µM) | – | – |
| O=C(NO)NCc1ccccc1Nc1c(Cl)cccc1Cl [Compound 3] | 77.3 ×10⁻⁶ cm/s | 29 mV | 0.198 | 2.33% and 2.33 (p = 0.0159) % | 6.27 ± 0.10 | 6.42 ± 0.11 | 5.45 µg/mL (≈ 16.7 µM) | 4.11 ± 0.02 | – |
| CC(=O)N(O)C(C)c1ccc(CC(C)C)cc1 (stereo not drawn) [Compound 11] | 146 ×10⁻⁶ cm/s | 7 mV | 0.292 | 1.63 (p = 0.073) % | 10.83 ± 0.03 | 11.01 ± 0.02 | 19.4 µg/mL (≈ 82.2 µM) | 3.84 ± 0.05 | 24% |
| COc1ccc2cc(C(C)N(O)C(C)=O)ccc2c1 (stereo not drawn) [Compound 12] | 157 ×10⁻⁶ cm/s | 13 mV | 0.296 | 0.24 (p = 0.4399) % | 48.54 ± 0.39 | 48.66 ± 0.49 | 11.8 µg/mL (≈ 45.4 µM) | 3.81 and 3.81 ± 0.04 | – |
